Test systems include OVCAR-3 ovarian; M14 melanoma; OVCAR-8 ovarian; DMS 273 small cell lung; CCRF-CEM leukemia; DMS 114 small cell lung; KM20L2 colon; DLD-1 colon; HOP-18 NSCLC.
Common to all, as to assay: inhibition of tumour cell growth, NCI panel, 48 h

The results in this text go back to PubChem BioAssay (NCI).

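Five compound concentrations were applied to cells in 96-well plates for 48 hours; endpoints were derived by simple linear interpolation of the resulting dose-response curve. TGI marks complete inhibition of growth.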

Consider `O=C(/C=C1/Nc2ccc([N+](=O)[O-])cc2NC1O)c1cccc([N+](=O)[O-])c1` (configuration not stated), for which the TGI with OVCAR-3 ovarian was > 100 µM; in the assay with M14 melanoma, > 100 µM; in the assay with OVCAR-8 ovarian it was 48.7 µM; with DMS 273 small cell lung, > 100 µM; in the assay with CCRF-CEM leukemia, > 100 µM; in the assay with DMS 114 small cell lung, > 100 µM. Besides, the TGI with KM20L2 colon was 96.2 µM; in the assay with DLD-1 colon, > 100 µM.
Regarding `O=C(Nc1ccn(CCI)c(=O)n1)c1ccccc1`, the TGI in the assay on OVCAR-3 ovarian, in the assay with M14 melanoma, in the assay with OVCAR-8 ovarian, in the assay on DMS 273 small cell lung, in the assay on CCRF-CEM leukemia and in the assay on HOP-18 NSCLC was > 100 µM in each case. In addition, the TGI in the assay with DMS 114 small cell lung, in the assay on KM20L2 colon and with DLD-1 colon was > 100 µM each time.
For the compound `Cc1cc2c(C)n(Cc3ccc(Cl)cc3Cl)nc2c(C(=O)O)c1C`, the TGI with OVCAR-3 ovarian, with OVCAR-8 ovarian, in the assay with DMS 273 small cell lung, in the assay with CCRF-CEM leukemia, in the assay on HOP-18 NSCLC and with KM20L2 colon was > 100 µM each time. Moreover, the TGI in the assay on DLD-1 colon was > 100 µM.
Regarding `CC12Oc3ccc4ccccc4c3CC1Cc1c(ccc3ccccc13)O2` (configuration not stated), the TGI is > 100 µM in the assay on M14 melanoma; > 100 µM in the assay with OVCAR-8 ovarian; 74.9 µM in the assay with DMS 273 small cell lung; 98.7 µM with HOP-18 NSCLC; > 100 µM in the assay with DMS 114 small cell lung; > 100 µM in the assay on KM20L2 colon. In the assay on DLD-1 colon, the TGI was > 100 µM.
With `CCOC(=O)C1=C(Nc2ccc(Cl)c(Cl)c2)OC/C1=N\NS(=O)(=O)c1ccc(C)cc1`, the TGI in the assay with OVCAR-3 ovarian, in the assay on M14 melanoma, in the assay with OVCAR-8 ovarian, in the assay with CCRF-CEM leukemia, in the assay on HOP-18 NSCLC and in the assay with DMS 114 small cell lung was > 100 µM each time. In addition, the TGI in the assay with KM20L2 colon and with DLD-1 colon was > 100 µM throughout.
Consider `COC(=O)C1=C(c2ccc3c(c2)OCO3)OC(c2cc(OC)c(OC)c(OC)c2)C1` (configuration not stated), for which the TGI was 4.26 µM in the assay on OVCAR-3 ovarian; 84.1 µM in the assay on M14 melanoma; 92.4 µM with OVCAR-8 ovarian; 58.8 µM in the assay with DMS 273 small cell lung; > 100 µM with CCRF-CEM leukemia; > 100 µM with HOP-18 NSCLC. For the same compound, the TGI in the assay on DMS 114 small cell lung was 9.33 µM; in the assay with DLD-1 colon, > 100 µM.
For `CC1=CC(=O)N(c2c(C)cccc2Cl)C(C)N1` (configuration not stated), the TGI with OVCAR-3 ovarian, in the assay with M14 melanoma, in the assay with OVCAR-8 ovarian, with DMS 273 small cell lung, in the assay on CCRF-CEM leukemia and in the assay with HOP-18 NSCLC was > 100 µM each time. Besides, the TGI in the assay on DMS 114 small cell lung, in the assay with KM20L2 colon and with DLD-1 colon was > 100 µM throughout.
As for `CN(C)C(=S)/N=c1\ss/c(=N\S(=O)(=O)c2ccccc2)n1N(C)C`, the TGI in the assay on OVCAR-3 ovarian, in the assay with M14 melanoma, in the assay with OVCAR-8 ovarian, in the assay with DMS 273 small cell lung, in the assay with CCRF-CEM leukemia and in the assay on HOP-18 NSCLC was > 100 µM each time. The TGI in the assay on DMS 114 small cell lung was 85.9 µM; in the assay with KM20L2 colon it was > 100 µM; in the assay on DLD-1 colon, > 100 µM.
For `COC1=C2CC(C)CC(OC)C(O)C(C)/C=C(\C)C(OC(N)=O)C(OC)/C=C\C=C(/C)C(=O)NC(=C(/C=N/N3CCCCC3)C1=O)C2=O` (configuration not stated), the TGI in the assay with OVCAR-3 ovarian was determined as 4.62 µM; in the assay on M14 melanoma it was 37.4 µM; in the assay with OVCAR-8 ovarian, 16.6 µM; with DMS 273 small cell lung it was 27.6 µM; with CCRF-CEM leukemia it was 7.85 µM; with HOP-18 NSCLC, 27.2 µM. The TGI in the assay with KM20L2 colon was 10.1 µM; with DLD-1 colon, 23.4 µM.
As to `O=S(=O)(C/C(=N\O)c1ccccc1)c1ccccc1`, the TGI in the assay on OVCAR-3 ovarian, in the assay with M14 melanoma, with OVCAR-8 ovarian, in the assay with DMS 273 small cell lung, in the assay with CCRF-CEM leukemia and in the assay with HOP-18 NSCLC was > 100 µM in each case. The TGI in the assay with KM20L2 colon and in the assay on DLD-1 colon was > 100 µM in each case.
In the case of `COc1ccc2nc(NC(=O)C(=O)C(C#N)c3ccc(Cl)c(Cl)c3)sc2c1` (configuration not stated), the TGI with OVCAR-3 ovarian, in the assay with M14 melanoma, with OVCAR-8 ovarian, in the assay on DMS 273 small cell lung, in the assay with CCRF-CEM leukemia and with DMS 114 small cell lung was > 100 µM throughout. For the same compound, the TGI in the assay on KM20L2 colon and in the assay with DLD-1 colon was > 100 µM in each case.
As to `O=C(O)CCSC(=O)Nc1ccc(N=Nc2ccccc2)cc1`, the TGI in the assay on OVCAR-3 ovarian, in the assay with M14 melanoma, in the assay on OVCAR-8 ovarian, with DMS 273 small cell lung, in the assay on CCRF-CEM leukemia and in the assay with HOP-18 NSCLC was > 100 µM throughout. The TGI in the assay with DMS 114 small cell lung, in the assay with KM20L2 colon and with DLD-1 colon was > 100 µM throughout.
Turning to `O=C(O)/C=C/C(=O)N1C/C(=C\c2ccccc2)C(=O)/C(=C/c2ccccc2)C1`, the TGI with OVCAR-3 ovarian turned out to be 15.6 µM; in the assay on M14 melanoma, 11.9 µM; with OVCAR-8 ovarian, 11.7 µM; in the assay with DMS 273 small cell lung, 20 µM; in the assay with CCRF-CEM leukemia, 7.18 µM; in the assay on HOP-18 NSCLC, 26.3 µM. Further, the values for the TGI in the assay on DMS 114 small cell lung, in the assay with KM20L2 colon and in the assay with DLD-1 colon were 8.78 µM, 17.6 µM and 12.2 µM, respectively.
Take `Nn1c(N=Nc2c(O)[nH]c3c(Cl)cc(Cl)cc23)n[nH]c1=S`: the TGI in the assay with OVCAR-3 ovarian, in the assay on M14 melanoma, in the assay with OVCAR-8 ovarian, in the assay on CCRF-CEM leukemia, in the assay on HOP-18 NSCLC and in the assay with DMS 114 small cell lung was > 100 µM each time. The TGI in the assay with KM20L2 colon and with DLD-1 colon was > 100 µM each time.
Take `O=C(NS(=O)(=O)c1ccccc1)C(Cc1ccccc1)C(Cc1ccccc1)C(=O)NS(=O)(=O)c1ccccc1` (configuration not stated): the TGI with OVCAR-3 ovarian, with M14 melanoma, in the assay on OVCAR-8 ovarian, in the assay with DMS 273 small cell lung, in the assay on CCRF-CEM leukemia and in the assay with HOP-18 NSCLC was > 100 µM each time. Besides, the TGI in the assay on DMS 114 small cell lung, in the assay with KM20L2 colon and in the assay with DLD-1 colon was > 100 µM throughout.
In the case of `CN1CC(=O)N(C)c2nc[nH]c2C1=O`, the TGI in the assay with OVCAR-3 ovarian, in the assay with M14 melanoma, with OVCAR-8 ovarian, in the assay with DMS 273 small cell lung, in the assay on CCRF-CEM leukemia and with HOP-18 NSCLC was > 100 µM in each case. In addition, the TGI with DMS 114 small cell lung and with DLD-1 colon was > 100 µM each time.
